The test system of one data set is rats. The settings on record: cited from earlier work.
A further data set concerns dispersed Caco-2 cells. Put plainly: Uptake of vitamin D from mixed micelles by dispersed Caco-2 cells. The data set is classed as in vitro ADME, human. The settings on record: NoPC mixed micelles, 2 h, cells dispersed with trypsin; compared among vitamins D2–D7. From the text: Since 2001, we have reported that lysophospholipids enhance the uptake of micellar carotenoids in Caco-2 cells. […] In the present study, using the same method, we examined whether the mechanism for the enhancing effect of lysophosphatidylcholine could be adapted to vitamin D, as well. To evaluate the impact of the degree of cell-cell adhesion/cell-matrix adhesion on vitamin D uptake by cells, we prepared in two different ways: i) dispersed Caco-2 cells without cell-cell adhesion/cell-matrix adhesion and ii) Caco-2 cells with insufficient cell-cell adhesion.
(i): The dispersed cells were prepared by trypsin treatment. After collecting the cells in the culture medium, the number of cells was counted and diluted with the medium. The cells were washed two times with FBS-free DMEM and then seeded in culture plate of 24-well for suspension cultures (SC plate; Greiner Bio-One, Frickenhausen, Germany) at a density of 15 × 10^4 cells per well containing the FBS-free DMEM (0.5 mL).
Subsequent operations are common to the two models of cells. The medium consisting of mixed micellar vitamin D (0.5 mL) was added to adhered cells or dispersed cells in individual wells containing FBS-free DMEM (0.5 mL), resulting in a total medium volume of 1.0 mL/well, and the final start concentrations of mixed micellar components were one-half the initial concentration. The cells were incubated in the same conditions as described above, i.e., in a CO2 incubator at 37 °C for 2 h, and then the cells were washed with 2 mM taurocholate/PBS, followed by two times with PBS. The vitamin D uptake and residual mixed micellar vitamin D were evaluated as the previous subsection, but the filtrate of residual mixed micellar vitamin D was diluted with a 2x-volume of H2O. The cellular protein content was also determined as above.

Molecules are shown by their SMILES.

For `C=C1CCC(O)C/C1=C/C=C1\CCCC2(C)C1CCC2C(C)CC[C@@H](C)C(C)C` (stereo partly shown) [Vitamin D7], the “Anti-rickets activity relative to that of vitamin D2” value in the data set with rats (UV-irradiated precursors) is on record as 1/10. In addition, in the data set with dispersed Caco-2 cells, the “Vitamin D uptake by dispersed Caco-2 cells” value (shortened to “Vitamin D uptake”) is “higher than those of vitamins D2 and D3”.

In the case of `C=C1CCC(O)C/C1=C/C=C1\CCCC2(C)C1CCC2C(C)/C=C/C(CC)C(C)C` (stereo not shown) [Vitamin D6], the Anti-rickets activity entry in the data set on rats (UV-irradiated precursors) is recorded as “little or no activity”. For the same compound, the “Vitamin D uptake” value in the data set with dispersed Caco-2 cells was “higher than those of vitamins D2 and D3”.

For `C=C1CC[C@H](O)C/C1=C/C=C1\CCC[C@]2(C)[C@@H]([C@H](C)CCCC(C)C)CC[C@@H]12` [Vitamin D3], the “Anti-rickets activity, comparison of vitamins D” value in the data set on rats (line test, vitamins D provided as a crystal) was “highest activities and were similar”.

Consider `C=C1CCC(O)C/C1=C/C=C1\CCCC2(C)C1CCC2C(C)CC[C@H](C)C(C)C` (stereo partly shown) [Vitamin D4], for which the “Anti-rickets activity as percentage of that of vitamin D2” value with rats (line test, crystal) is recorded as 50–75%. Further, the “Vitamin D uptake” value with dispersed Caco-2 cells is “higher than those of vitamins D2 and D3”.

The record behind these values is publication PMC8067314, “Uptake of Vitamins D2, D3, D4, D5, D6, and D7 Solubilized in Mixed Micelles by Human Intestinal Cells, Caco-2, an Enhancing Effect of Lysophosphatidylcholine on the Cellular Uptake, and Estimation of Vitamins D’ Biological Activities” (Nutrients, 2021).
